From article PMC10298982, “Stability Characterization of the Novel Anti-Cancer HM-10/10 HDL-Mimetic Peptide” (International Journal of Molecular Sciences, 2023)
Read-outs that look alike come from different tables or passages of the source. Ends that are not written are not given here.

What was measured:
[1] = Metabolic stability in cryopreserved Sprague-Dawley rat hepatocytes; format: in vitro ADME; conditions: Sprague-Dawley rat hepatocytes 0.5 million cells/mL; for CLint scaled: rat, hepatocytes, 2 μM
CYP1A2 = CYP1A2 induction (enzyme activity) in single-donor human hepatocytes; format: in vitro ADME; conditions: for Fold Increase (Enzyme Activity) Mean: mean of three lots
Protocol: The transport medium was replaced with 200 μL of warm (37 °C) incubation medium (InVitroGRO HI, BioIVT Catalog No. Z99009) and the plate was placed in a humidified 5% carbon dioxide incubator at 37 °C for 24 h.
In addition, test article vehicle (PBS) was added to warm (37°C) InVitroGRO HI Medium in a 5:95 (v:v) ratio. […] The plates were removed from the incubator and the hepatocytes were prepared for the induction assay by replacing the cell culture medium with medium containing either the test article, a control inducer, or vehicle control (200 µL per well). The hepatocyte plates were returned to the cell culture incubator and incubated for 24 h.
On Day 3, induction was repeated following the same steps as described above for the previous day, and plates were returned to the cell culture incubator for an additional 24 h.
After aliquots were taken to measure test article stability, all the remaining medium from each well in the hepatocyte plate was removed, all wells were washed once using 200 μL of blank assay buffer, and then 100 μL of the 1000-fold diluted substrate solutions were added to the appropriate wells. The assay plate was returned to the humidified 5% carbon dioxide incubator at 37 °C for 1 h incubation.
At the end of the incubation time, 100 μL of mRNA lysis buffer was added to each well to stop the reaction. Fifty microliters of this reaction mixture were transferred into a new plate and quenched with 200 μL of ice-cold acetonitrile containing a CYP-specific stable labeled internal standard (250 ng/mL acetaminophen-d4, 250 ng/mL hydroxybupropion-d6, or 250 ng/mL hydroxytestosterone-d3). After removal of the aliquots from the plate for enzyme activity determination, the assay plates were sealed and stored in a −70 °C freezer until use for RT-PCR, mRNA analysis.
For the induction assay samples, an aliquot (50 µL) of the supernatant was transferred to a new plate and diluted with 100 µL Milli-Q water. For the test article stability samples, an aliquot (50 µL) of the supernatant was transferred to a new plate and diluted with 60 µL 0.1% formic acid in Milli-Q water. These samples for the enzyme activity assay and article stability test were refrigerated for storage until analysis. […]
HM1010: Induction Potential of Cytochrome P450 Enzymes
(CYP1A2, CYP2B6 and CYP3A4) Using Human Cryopreserved Hepatocytes
Testing Facility Study No.
The purpose of this in-vitro study was to determine the induction potential of HM1010 on human
cytochrome P450 (CYP) isoenzyme (1A2, 2B6 and 3A4) activity. The study design is
Matrix: Inducible cryopreserved human hepatocytes three single-donor lots
Assay Buffer: InVitroGRO KHB
Substrates: Phenacetin (1A2), Bu propion (2B6), and Testosterone (3A4)
Assay conditions: 48 hours at 37°C in humidified 5% carbon dioxide incubator
Analysis: LC-MS/MS (enzyme activity) and mRNA analysis

CYP2B6 = CYP2B6 induction (mRNA expression) in single-donor human hepatocytes; format: in vitro ADME
Protocol: RNA isolation and quantification: E-Z 96 Total RNA Kit (Omega Bio-tek, Catalog No. R1034-02) was used for RNA isolation and Quant-iT RNA assay kit (ThermoFisher, Catalog No. Q33140) was used for RNA quantification. The plates were removed from a −80 °C freezer and equilibrated to room temperature. RNA was extracted using the manufacturer’s recommended protocol. Eighty-one microliters of 100% ethanol were added into each well containing 150 µL of lysed sample to make a final ethanol concentration at 35%.
cDNA generation: For cDNA generation, a High-Capacity cDNA Reverse Transcription Kit (Applied Biosystems, Catalog No. 4319983) and QuantStudio 3 PCR system (Applied Biosystems) were used. In this step, 2X Reverse Transcription Master Mix was prepared using the contents of the kit. Then, 10 µL of total RNA was added to 10 µL of 2X Reverse Transcription Master Mix in a microplate and the plate was sealed. This plate was then run in a thermocycler to generate cDNA.
Real time PCR: SsoAdvanced Universal SYBR® Green Supermix (BIO-RAD, Catalog No. 172-5270) and the QuantStudio 3 Real-Time PCR system (Applied Biosystems) were used to perform real-time PCR on the generated cDNA. In this step, a PCR mix was prepared using PCR Supermix, SYBR® primers for the targeted genes, and nuclease-free water. Two microliters of ten-fold diluted cDNA samples (5 µL of cDNA into 45 μL of nuclease-free water) were added to 8 µL of PCR Mix in a microplate and sealed. This plate was then run through the Real-Time PCR system to generate the mRNA expression data.
• Human GAPDH • F: […] • R: […] • Human CYP1A2 • Unique Assay ID: qHsaCID0015160 • Chromosome Location: 15:75045562-75047256 • Human CYP2B6 • F: […] • R: […] • Human CYP3A4 • F: […] • R: […]

CYP2C9 = CYP2C9 (Homo sapiens, UniProt P11712); conditions: microsomes
Sequence of CYP2C9 (P11712 whole entry): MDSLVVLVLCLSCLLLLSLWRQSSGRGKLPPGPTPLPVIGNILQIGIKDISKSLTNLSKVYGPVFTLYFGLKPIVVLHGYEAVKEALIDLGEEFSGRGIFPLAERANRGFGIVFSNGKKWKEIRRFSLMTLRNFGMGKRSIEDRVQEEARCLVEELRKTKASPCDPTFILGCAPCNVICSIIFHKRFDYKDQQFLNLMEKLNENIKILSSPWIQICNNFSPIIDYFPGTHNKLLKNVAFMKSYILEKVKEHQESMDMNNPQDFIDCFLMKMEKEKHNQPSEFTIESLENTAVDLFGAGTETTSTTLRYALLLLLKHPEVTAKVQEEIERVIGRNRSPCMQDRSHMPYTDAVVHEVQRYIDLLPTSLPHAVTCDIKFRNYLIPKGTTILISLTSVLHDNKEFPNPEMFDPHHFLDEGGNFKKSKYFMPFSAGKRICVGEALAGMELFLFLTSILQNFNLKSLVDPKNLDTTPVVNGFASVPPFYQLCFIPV

Sequence: LRKLRKRLLRLVGRQLEEFL [HM-10/10, LRKLRKRLLRLVGRQLEEFL]
- half-life at 2 µM ([1]; cryopreserved hepatocytes): 5.81 min
- remaining at 0.5 h, 2 µM ([1]; cryopreserved hepatocytes, read-out: % Remaining at 30 min): 1%
- CLint scaled ([1]; read-out: CLint (L/hr/kg) (converted)): 75.4 L/h/kg
- CLint scaled ([1]; read-out: CLint (mL/min/kg)): 75.6 L/h/kg
- Fold Increase (Enzyme Activity) Lot HH1086 (CYP1A2; 2 µM): 0.682 fold
- Fold Increase (Enzyme Activity) Lot HH1142 (CYP1A2; 2 µM): 1.33 fold
- Fold Increase (Enzyme Activity) Lot HH1144 (CYP1A2; 2 µM): 1.73 fold
- Fold Increase (Enzyme Activity) Mean (CYP1A2; 2 µM): 1.25 fold
- Fold Increase (Enzyme Activity) Lot HH1086 (CYP1A2; 10 µM): 1.88 fold
- Fold Increase (Enzyme Activity) Lot HH1142 (CYP1A2; 10 µM): 5.19 fold
- Fold Increase (Enzyme Activity) Lot HH1144 (CYP1A2; 10 µM): 3.32 fold
- Fold Increase (Enzyme Activity) Mean (CYP1A2; 10 µM): 3.46 fold
- Fold Increase (Enzyme Activity) Lot HH1086 (CYP1A2; 25 µM): 2.46 fold
- Fold Increase (Enzyme Activity) Lot HH1142 (CYP1A2; 25 µM): 5.98 fold
- Fold Increase (Enzyme Activity) Lot HH1144 (CYP1A2; 25 µM): 3.65 fold
- Fold Increase (Enzyme Activity) Mean (CYP1A2; 25 µM): 4.03 fold
- Comments (mRNA induction) (CYP2B6; 2 µM): Induction Observed
- Fold Increase (mRNA Expression) Lot HH1086 (CYP2B6; 2 µM): 2.03 fold
- Fold Increase (mRNA Expression) Lot HH1142 (CYP2B6; 2 µM): 9.76 fold
- Fold Increase (mRNA Expression) Lot HH1144 (CYP2B6; 2 µM): 2.86 fold
- Fold Increase (mRNA Expression) Mean of 3 Lots (CYP2B6; 2 µM): 4.88 fold
- Comments (mRNA induction) (CYP2B6; 10 µM): Induction Observed
- Fold Increase (mRNA Expression) Lot HH1086 (CYP2B6; 10 µM): 2.54 fold
- Fold Increase (mRNA Expression) Lot HH1142 (CYP2B6; 10 µM): 7.08 fold
- Fold Increase (mRNA Expression) Lot HH1144 (CYP2B6; 10 µM): 3.33 fold
- Fold Increase (mRNA Expression) Mean of 3 Lots (CYP2B6; 10 µM): 4.32 fold
- Comments (mRNA induction) (CYP2B6; 25 µM): Induction Observed
- Fold Increase (mRNA Expression) Lot HH1086 (CYP2B6; 25 µM): 1.26 fold
- Fold Increase (mRNA Expression) Lot HH1142 (CYP2B6; 25 µM): 5.04 fold
- Fold Increase (mRNA Expression) Lot HH1144 (CYP2B6; 25 µM): 1.92 fold
- Fold Increase (mRNA Expression) Mean of 3 Lots (CYP2B6; 25 µM): 2.74 fold
- % Inhibition at 50 µM No PI + NADPH (CYP2C9): 8.6%
- % Inhibition at 50 µM No PI − NADPH (CYP2C9): 0.4%
- % Inhibition at 50 µM PI + NADPH (CYP2C9): 1.7%
- % Inhibition at 50 µM PI − NADPH (CYP2C9): 0.5%
